{"source": "patent US20080171095A1", "about": "“Carnosine-related compounds for preventing and treating impaired neurovascular blood flow” (Michigan State University, priority 2005, published 2008)", "system": "Male C57BL/6J mice, permanent occlusion of the middle cerebral artery (focal ischemia)", "assay": "Focal ischemia in mice: permanent occlusion of the middle cerebral artery, infarct volume by 2,3,5-triphenyl-tetrazolium chloride staining", "assay_type": "in vivo", "details": "assessed 24 hours after occlusion; for Reduction of infarct volume versus saline-injected control mice: 30 minutes before artery occlusion (FIG. 1)", "method": "Male C57BL/6J mice were subjected to a permanent occlusion of the middle cerebral artery. For prophylactic studies, carnosine (100 mg/kg or 500 mg/kg, I.P.) was administered thirty (30) minutes (FIG. 1) or sixty (60) minutes (FIG. 2) before artery occlusion. For treatment studies, carnosine (1000 mg/kg, I.P.) was administered sixty (60) minutes after artery occlusion (FIG. 2).\nDamage to the neural tissue (i.e., infarct volume) was assessed twenty-four (24) hours after occlusion by 2,3,5-triphenyl-tetrazolium chloride staining. Infarct volumes were reduced by 49% and 65% in mice prophylactically given 100 mg/kg and 500 mg/kg carnosine, respectively, versus saline-injected control mice. (FIG. 1) This protective dose dependence was reproduced in a second experiment that compared a post-occlusion carnosine administration. In this experiment, infarct volumes were reduced by 40% and 52%, respectively in mice prophylactically given 100 mg/kg and 500 mg/kg carnosine. A 40% reduction in infarct volume was also observed when mice were administered 1000 mg/kg carnosine after the occlusion."}
{"compound": "NCCC(=O)N[C@@H](Cc1c[nH]cn1)C(=O)O", "note": "[carnosine, β-alanyl-L-histidine]", "values": [{"measurement": "Reduction of infarct volume versus saline-injected control mice", "setting": "100 mg/kg I.P., prophylactic", "result": 49, "unit": "%"}, {"measurement": "Reduction of infarct volume versus saline-injected control mice", "setting": "500 mg/kg I.P., prophylactic", "result": 65, "unit": "%"}, {"measurement": "Reduction of infarct volume", "setting": "second experiment (FIG. 2): 100 mg/kg I.P., prophylactic, 60 minutes before artery occlusion", "result": 40, "unit": "%"}, {"measurement": "Reduction of infarct volume", "setting": "second experiment (FIG. 2): 500 mg/kg I.P., prophylactic, 60 minutes before artery occlusion", "result": 52, "unit": "%"}, {"measurement": "Reduction of infarct volume", "setting": "second experiment (FIG. 2): 1000 mg/kg I.P., treatment, 60 minutes after artery occlusion", "result": 40, "unit": "%"}]}
